Legend:
[1] = Glucose tolerance testing in type 2 diabetes model; type: in vivo, mouse
Procedure: Glucose tolerance testing was conducted in fasted type 2 diabetic mice. Rodent chow was removed overnight and testing was conducted in the morning. After baseline glucose testing mice were injected intraperitoneal with sterile D-glucose (2 g/kg). Repeated blood glucose sampling was conducted every 15-30 minutes for 2 hours.

HUVECs = test: Cell migration by scratch assay in HUVECs (CL 316,243); type: cell-based, human
superoxide = test: Superoxide generation by lucigenin enhanced chemiluminescence in hind limb tissue; type: in vivo, mouse; conditions: after 14 days of infusion
Procedure: (§1) Hind limb tissue including the gastrocnemius and adductor muscles were isolated and collected at 14 or 28 days. Tissues were separated and implanted in OCT or placed in cryovials and snap-frozen in liquid nitrogen or were fixed in 10% formalin for 24-hours and then moved to 70% ethanol for storage.
Frozen adductor tissue was prepared for lucigenin-enhanced chemiluminescence assay by homogenising in lysis buffer (250 mM sucrose in phosphate-buffered saline (mM: 129 NaCl, 7 Na2HPO4, 3 NaH2PO4·2H2O, pH 7.4, with protease inhibitors (cOmplete™ EDTA-free, Roche Diagnostics). Sample was added to opaque 96-well plates in the presence of lucigenin (20 μmol/1 N,N′-Dimethyl-9,9′-biacridinium dinitrate) and NADPH (100 μM; β-Nicotinamide adenine dinucleotide 2′-phosphate reduced tetrasodium salt hydrate). The reaction was conducted at room temperature and tracked using a luminometer (Veritas, Turner Biosystems, USA) with an average measurement taken from 20 cycles, as described in Bubb et al., (2018, Microcirulation, e12501). Replicates of each sample were treated with manganese TMPyP (Merck Millipore, Australia, a cell-permeable superoxide dismutase mimetic, 30 μmol/L), during the assay and any signal was subtracted from the total signal as non-superoxide background signal. Superoxide production was normalized to protein concentration or cell count.

Nox 4 = test: Immunoblot of hind limb Nox 4 expression; type: in vivo, mouse
Procedure: as §1
Gastrocnemius samples were stored at −80° C. and then mechanically homogenized in ice-cold lysis buffer containing 150 mmol/L NaCl, 200 mmol/L Tris-HCl (pH 8.0), 1% Triton X-100, 0.5% deoxycholic acid, 0.1% SDS, N-ethylmaleimide (25 mM) and protease inhibitors (cOmplete™ EDTA-free, Roche Diagnostics). 30 μg of protein lysate was denatured and run under reducing conditions on SDS-PAGE (Bolt™ pre-cast gels and reagents, Thermofisher Scientific, Australia) and transferred onto Immobilon polyvinylidene fluoride membrane (Merck Millipore, Australia). […] Membranes were detected using an Odyssey imaging platform (Licor, USA).

C57BL6/J mice = test: Hind limb ischemia in type 2 diabetes model, laser Doppler perfusion; type: in vivo, mouse; conditions: type 2 diabetes mice
Procedure: Male C57BL6/J mice 8-10 weeks of age were obtained from Australian BioResources (Moss Vale, NSW) with 12 hour light/dark cycles and free access to water and mouse chow (Specialty Feeds, Australia). Mice were housed in groups of 2-5 in standard cages within a Physical Containment Level 2 laboratory. For in vivo angiogenesis 16 mice underwent the femoral vascular ligation model. Mice were anaesthetized with 1.5-2% isoflurane vaporized in oxygen and constant body temperature was maintained. All mice received pre-operative and 24-hour post-operative analgesia (carprofen, 5 mg/kg s.c). A small incision (˜15 mm) was made in the hind limb skin directly over the femoral vasculature. A portion of the femoral artery and vein, distal to the origin of the profunda femoris artery and proximal to the saphenous artery, were isolated and two ligations were performed using 6-0 silk sutures. The femoral artery and vein were then excised between the ligation sites 27. […] Hind limb blood flow was assessed prior to ligation (baseline) and immediately after undergoing hind limb ischemia, with subsequent imaging at day 3, 7, 10, 14, 21 and 28 post hind limb ischemia. […] The rate of reperfusion in the hind limb was calculated as a ratio of blood flow in the ischemic versus non-ischemic contralateral limb. […]

## C[C@H](Cc1ccc2c(c1)OC(C(=O)[O-])(C(=O)[O-])O2)NC[C@H](O)c1cccc(Cl)c1.[Na+].[Na+] [CL 316,243]
[1]; fasted for glucose tolerance tests, did not reach significant difference
  fasted blood glucose levels: appeared lower
[1]; non-hyperglycemic, non-diabetic controls
  glucose tolerance: even improved
[1]; type 2 diabetic mice
  glucose tolerance: improved
HUVECs; by 24 hours at the higher concentrations
  closure of denuded zone: > 90%
HUVECs; scratch assay over 24 hours, 1-1000 ng/ml, vs vehicle control
  migration of HUVECs into the denuded zone: significantly increased migration
superoxide
  superoxide bioavailability in the ischemic limb: significantly lower
Nox 4; ischemic limb, non-diabetic mice, n=4, P>0.05
  Nox 4 hind limb protein expression: 0.88±0.28 fold change from vehicle
Nox 4; type 1 diabetic mice, ischemic and non-ischemic limb, back to control levels
  diabetes-induced elevation in Nox4 expression: markedly reduced
C57BL6/J mice
  reperfusion post-ischemia: augmented reperfusion

Reference: patent publication US20240148701A1, “WOULD HEALING METHODS” (The University of Sydney, priority 2021, published 2024)
